How the values were obtained:
[1] = tested on: TG hydrolase activity in lysates obtained from ATGL-ko animals; experiment: TG hydrolase activity in WAT lysates of ATGL-ko mice; assay type: biochemical; conditions: at concentrations ≥ 20 µM
Description: (§1) • Figure 1. Structure of compounds 1 to 3 (reference) and compound 4 (atglistatin) and effect on ATGL activity. For determination of lipase activity, lysates of E. coli overexpressing recombinant strep-tagged ATGL and CGI-58 were incubated with a substrate containing radiolabeled [9,10-3H(N)]-triolein. Subsequently, FA were extracted and quantified by liquid scintillation counting. Lysates of cells expressing empty vector were set as blank. Inhibitors were solubilized in DMSO and added at the indicated concentrations. DMSO alone was used as negative control. (A) Structure and IC50 values of compounds 1-4. (B) Dose-dependent inhibition of ATGL in the presence of compound 3 and 4. […] (C) Lineweaver-Burk plots for kinetic analysis of ATGL inhibition. Experiments were performed at varying concentrations of substrate (0.05 - 3 mM) in presence and absence of compound 4 (Atglistatin). […] Lipase activity of ATGL, HSL, lipoprotein lipase, and pancreatic lipase was determined using triolein as substrate. MGL activity was detected in the presence of rac-(1,3)-monooleoylglycerol as substrate. […] The release of FA (A) and glycerol (B) in the media was determined using commercial kits. […] At the indicated timepoints blood was taken retroorbitally and plasma parameters were measured using commercial kits. […] 8 h after gavage blood was taken retroorbitally and plasma parameters were measured using commercial kits. […]

[2] = tested on: TG hydrolase activity of wild-type WAT; experiment: TG hydrolase activity in WAT lysates of wild-type mice; assay type: biochemical; conditions: up to, at a concentration of 40 µM
Description: For determination of lipase activity, lysates of E. coli overexpressing recombinant strep-tagged ATGL and CGI-58 were incubated with a substrate containing radiolabeled [9,10-3H(N)]-triolein. Subsequently, FA were extracted and quantified by liquid scintillation counting. Lysates of cells expressing empty vector were set as blank. Inhibitors were solubilized in DMSO and added at the indicated concentrations. DMSO alone was used as negative control. […] Data are presented as mean +/-S.D. of triplicate determinations. […] Lipase activity of ATGL, HSL, lipoprotein lipase, and pancreatic lipase was determined using triolein as substrate. MGL activity was detected in the presence of rac-(1,3)-monooleoylglycerol as substrate. Inhibitors were solubilized in DMSO and added at the indicated concentrations. DMSO alone was used as negative control. (A) Dose-dependent inhibition of TG hydrolase activity in WAT lysates obtained from wild-type and ATGL-ko mice.

[3] = target: T1, murine MGL (Mus musculus, UniProt O35678); experiment: MG hydrolase activity, purified MGL, rac-1-(3)-oleoylglycerol substrate; assay type: biochemical; conditions: Fig. 2C
T1 construct: made in house; host or cells: E. coli, purified
T1 sequence (O35678 1-303): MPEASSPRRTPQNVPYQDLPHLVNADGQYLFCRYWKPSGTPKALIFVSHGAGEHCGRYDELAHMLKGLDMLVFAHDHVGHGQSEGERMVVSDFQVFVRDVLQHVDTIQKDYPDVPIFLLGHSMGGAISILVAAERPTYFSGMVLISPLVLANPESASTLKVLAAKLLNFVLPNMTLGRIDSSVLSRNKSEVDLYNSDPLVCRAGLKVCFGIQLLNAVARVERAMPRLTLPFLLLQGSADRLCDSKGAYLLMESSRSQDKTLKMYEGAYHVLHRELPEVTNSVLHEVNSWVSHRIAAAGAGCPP
Description: as §1

[4] = tested on: AML-12 mouse hepatocytes; experiment: MTT-based in vitro viability (toxicity) test; assay type: cell-based; conditions: at concentrations ≥100 µM
Description: Toxicity test for Atglistatin in AML-12 mouse hepatocytes. For MTT-based in vitro viability assays, cells were seeded at an initial density of 1x10^4 cells per well in 96-well plates and cultured under standard conditions for twenty-four hours. The next day, cells were pretreated with different concentrations of Atglistatin dissolved in DMSO or Cisplatin dissolved in dimethylformamide (DMF) (Sigma-Aldrich) as positive control for two hours. Medium was replaced by an identical fresh medium and incubated again for the indicated timepoints. Thereafter cells were incubated for 3 hours with 100 µl Thiazolyl Blue Tetrazolium Bromide (MTT). The resulting violet formazan crystals were dissolved by adding 100 µl of MTT Solubilization Solution (0.1% NP-40, 4 mM HCl and anhydrous isopropanol). After complete dissolution of the formazan product, absorbance was measured at 595 nm and 690 nm. The values obtained at 690 nm were subtracted from the 595 nm measurements.

CN(C)C(=O)Nc1cccc(-c2ccc(N(C)C)cc2)c1 [Atglistatin, atglistatin]
effect on the residual TG hydrolase activity in ATGL-ko lysates [1]: moderate but significant effect | inhibition of TG hydrolase activity of wild-type WAT [2]: up to 78% | effect on MGL activity [3]: only minor effects | cell viability (cytotoxicity assays) [4]: only a very moderate decrease in cell viability

— EP2948433B1, “ATGLISTATIN AS LIPASE INHIBITOR” (Technische Universität Graz, priority 2013, dated 2014)
